According to patent US20210255193A1, “LYSINE REACTIVE PROBES AND USES THEREOF” (The Scripps Research Institute, priority 2017, published 2021):
Values belong to the compound of their own block, whether it stands above or below them.

Key:
Experiment in all cases: competitive isoTOP-ABPP
Type in all cases: binding
[1] = molecular target: T1, TPD52L2 Tumor protein D54 (Homo sapiens, UniProt O43399); parameters: key to isoTOP-ABPP reactivity ratio at lysine O43399_K90: R = MS1 peak area ratio, DMSO (heavy) / compound-treated (light); conditions: 50 uM, 231 sol, in vitro; for R value (DMSO/fragment) for probe 1 labeling: O43399_K90
T1 construct: isoTOP-ABPP experiments performed in cell lysates (in vitro); endogenous in cells; host or cells: MDA-MB-231 soluble lysate
Method: (§1) In vitro covalent fragment treatment for isoTOP-ABPP. All compounds were made up as solutions in DMSO (100×) and were used at a final concentration of 50 μM for activated esters and 100 μM for guanidinylating agents. For each profiling sample, 0.5 ml of lysate was treated with 5 μl of the 100× compound stock solution or 5 μl of DMSO. Samples were treated with activated esters for
(§2) STP-alkyne labeling and click chemistry. For concentration-dependent reactivity measurements by isoTOP-ABPP, 0.5 ml proteome aliquots were treated at ambient temperature with 1 mM STP-alkyne 1 (5 μl of 100 mM stock in DMSO) and 0.1 mM STP alkyne 1 (5 μl of 10 mM stock in DMSO), respectively. For competitive isoTOP-ABPP, after in vitro fragment treatment (detailed above), the samples were labeled for 1 h at ambient temperature with 0.1 mM STP-alkyne 1 (5 μl of 10 mM stock in DMSO). Samples were conjugated by copper-mediated azide-alkyne cycloaddition (CuAAC) to either the light (1 mM STP-alkyne or fragment treated) or heavy (0.1 mM STP-alkyne or DMSO treated) TEV tags (10 μl of 5 mM stocks in DMSO, final concentration=100 μM) using tris(2-carboxyethyl)phosphine hydrochloride
(§3) R value calculation and processing. The ratios of light and heavy MS1 peaks for each unique peptide were quantified with a CIMAGE software using default parameters (3 MS1 acquisitions per peak and signal to noise threshold set to 2.5). For reactivity measurements by isoTOP-ABPP, the R value was calculated from the ratio of MS1 peak areas, comparing the 1 mM STP alkyne sample (light TEV tag) with the 0.1 mM STP alkyne sample (heavy TEV tag). For competitive isoTOP-ABPP, the R value was calculated from the ratio of MS1 peak areas, comparing the DMSO treated sample (heavy TEV tag) with the compound treated sample (light TEV tag). […] Ratios for unique peptide entries are calculated for each experiment; overlapping peptides with the same modified lysine (for example, different charge states, MudPIT chromatographic steps or tryptic termini) are grouped together and the median ratio is reported as the final ratio (R). The peptide ratios reported by CIMAGE were further filtered to ensure the removal or correction of low-quality ratios in each individual data set. The quality filters applied were the following: removal of half tryptic peptides; for ratios with high standard deviations from the median (90% of the median or above) the lowest ratio was taken instead of the median; removal of peptides with R=20 and only a single MS2 event triggered during the elution of the parent ion; manual annotation of all the peptides with ratios of 20, removing any peptides with low quality elution profiles that remained after the previous curation steps (only done for competitive isoTOP-ABPP).
(§4) Cross-data processing for fragment screening. For compound treated samples, biological replicates of the same condition were averaged, if the standard deviation was below 60% of the mean; otherwise, for lysines with at least one R value <4 for a particular compound, the lowest value of the ratio set was taken. For lysines, where all R values for a particular compound were ≥4, the average was reported. For peptides containing several possible modified lysines, the lysine with the highest number of quantification events was used for analysis and the remaining, redundant peptides were reported as alternative modification sites. Peptides included in the aggregate dataset (those used for further bioinformatics and statistical analyses) were required to have been quantified in 2 experiments for competitive isoTOP-ABPP. Lysines were categorized as liganded, if they had at least one ratio R≥4 (hit fragments). For liganded lysines with R=20 for all liganding events, lysines were required to have been quantified with R=20 in two separate experiments and were further required to have been quantified with R<20 in one additional experiment.

[2] = molecular target: T2, EEF2 Elongation factor 2 (Homo sapiens, UniProt P13639); conditions: 50 uM, 231 sol, in vitro
T2 construct: isoTOP-ABPP experiments performed in cell lysates (in vitro); endogenous in cells; host or cells: soluble proteome of human cancer cell lines (MDA-MB-231; Ramos and Jurkat also prepared)
How it was run: (§5)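 Readout: isotopic light/heavy MS1 peak-area ratio (R, DMSO heavy over compound light), median across peptides sharing a modified lysine. Lysate received fragment (activated esters 50 μM, guanidinylating agents 100 μM final) or DMSO, then 0.1 mM STP-alkyne probe for 1 h at ambient temperature.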

[3] = molecular target: T3, FECH Ferrochelatase, mitochondrial (Homo sapiens, UniProt P22830); conditions: 50 uM, 231 sol, in vitro; for R value (DMSO/fragment) for probe 1 labeling: P22830_K304
T3 construct: isoTOP-ABPP experiments performed in cell lysates (in vitro); endogenous in cells; host or cells: soluble proteome of human cancer cell lines (MDA-MB-231; Ramos and Jurkat also prepared)
T3 sequence (P22830 55-423): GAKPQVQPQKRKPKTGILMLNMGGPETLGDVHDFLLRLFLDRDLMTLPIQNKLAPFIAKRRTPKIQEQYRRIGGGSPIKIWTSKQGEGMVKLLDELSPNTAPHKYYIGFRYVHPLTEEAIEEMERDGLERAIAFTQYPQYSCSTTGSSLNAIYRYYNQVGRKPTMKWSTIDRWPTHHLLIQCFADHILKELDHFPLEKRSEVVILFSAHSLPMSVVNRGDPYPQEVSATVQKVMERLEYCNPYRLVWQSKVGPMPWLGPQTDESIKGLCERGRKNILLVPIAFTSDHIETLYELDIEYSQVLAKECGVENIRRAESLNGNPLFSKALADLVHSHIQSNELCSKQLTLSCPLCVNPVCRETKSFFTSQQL
How it was run: as §5

[4] = molecular target: T4, MRPS24 28S ribosomal protein S24, mitochondrial (Homo sapiens, UniProt Q96EL2); conditions: 50 uM, 231 sol, in vitro; for R value (DMSO/fragment) for probe 1 labeling: Q96EL2_K94
T4 construct: isoTOP-ABPP experiments performed in cell lysates (in vitro); endogenous in cells; host or cells: soluble proteome of human cancer cell lines (MDA-MB-231; Ramos and Jurkat also prepared)
How it was run: as §5

[5] = molecular target: T5, PSME3 Proteasome activator complex subunit 3 (Homo sapiens, UniProt P61289); parameters: key to isoTOP-ABPP reactivity ratio at lysine P61289_K237: R = MS1 peak area ratio, DMSO (heavy) / compound-treated (light); key to isoTOP-ABPP reactivity ratio at lysine P61289_K12: R = MS1 peak area ratio, DMSO (heavy) / compound-treated (light); capped at 20; conditions: 50 uM, 231 sol, in vitro
T5 construct: isoTOP-ABPP experiments performed in cell lysates (in vitro); endogenous in cells; host or cells: soluble proteome of human cancer cell lines (MDA-MB-231, Ramos, Jurkat)
Method: as §1, §2, §3, §4

T1 sequence (O43399 whole entry, the tested form may be a part): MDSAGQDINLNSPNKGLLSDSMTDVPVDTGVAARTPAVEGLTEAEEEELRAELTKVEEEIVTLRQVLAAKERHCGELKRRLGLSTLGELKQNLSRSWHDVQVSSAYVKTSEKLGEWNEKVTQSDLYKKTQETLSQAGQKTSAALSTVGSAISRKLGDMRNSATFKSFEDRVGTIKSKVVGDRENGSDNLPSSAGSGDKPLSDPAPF
T5 sequence (P61289 whole entry, one chain of several): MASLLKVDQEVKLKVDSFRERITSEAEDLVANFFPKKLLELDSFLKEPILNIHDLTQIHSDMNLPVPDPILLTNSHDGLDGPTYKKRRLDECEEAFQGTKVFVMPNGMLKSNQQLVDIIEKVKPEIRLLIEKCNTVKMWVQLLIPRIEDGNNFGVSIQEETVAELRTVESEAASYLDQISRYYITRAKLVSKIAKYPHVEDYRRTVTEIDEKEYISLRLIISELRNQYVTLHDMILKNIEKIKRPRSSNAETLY

R value (DMSO/fragment) for probe 1 labeling [1]: 1.5
R value (DMSO/fragment) for probe 1 labeling ([2]; P13639_K235): 1.1
R value (DMSO/fragment) for probe 1 labeling ([2]; P13639_K318): 1.1
R value (DMSO/fragment) for probe 1 labeling [3]: 1.7
R value (DMSO/fragment) for probe 1 labeling [4]: 0.9
R value (DMSO/fragment) for probe 1 labeling ([5]; P61289_K12): 0.9
R value (DMSO/fragment) for probe 1 labeling ([5]; P61289_K237): 0.9
SMILES: O=C(Oc1c(F)c(F)c(F)c(F)c1F)C(c1ccccc1)c1ccccc1 [fragment 20, Pentafluorophenyl 2,2-diphenylacetate]

R value (DMSO/fragment) for probe 1 labeling [1]: 2.0
R value (DMSO/fragment) for probe 1 labeling ([2]; P13639_K235): 1.1
R value (DMSO/fragment) for probe 1 labeling ([2]; P13639_K318): 1.2
R value (DMSO/fragment) for probe 1 labeling [3]: 1.0
R value (DMSO/fragment) for probe 1 labeling [4]: 0.8
R value (DMSO/fragment) for probe 1 labeling ([5]; P61289_K12): 1.0
R value (DMSO/fragment) for probe 1 labeling ([5]; P61289_K237): 0.9
SMILES: O=C(Oc1c(F)c(F)c(F)c(F)c1F)c1cc(C(F)(F)F)cc(C(F)(F)F)c1 [fragment 21, Pentafluorophenyl 3,5-bis(trifluoromethyl)benzoate]

isoTOP-ABPP reactivity ratio at lysine O43399_K90 [1]: 1.5
isoTOP-ABPP reactivity ratio at lysine P13639_K235 [2]: 1.9
isoTOP-ABPP reactivity ratio at lysine P13639_K318 [2]: 2.3
isoTOP-ABPP reactivity ratio at lysine P22830_K304 [3]: 1.0
isoTOP-ABPP reactivity ratio at lysine Q96EL2_K94 [4]: 1.3
isoTOP-ABPP reactivity ratio at lysine P61289_K12 [5]: 0.9
isoTOP-ABPP reactivity ratio at lysine P61289_K237 [5]: 0.5
SMILES: O=C(Oc1c(F)c(F)c(F)c(F)c1F)c1ccc2ccccc2n1 [fragment 25, Pentafluorophenyl quinoline-2-carboxylate]

isoTOP-ABPP reactivity ratio at lysine O43399_K90 [1]: 1.3
isoTOP-ABPP reactivity ratio at lysine P13639_K235 [2]: 1.3
isoTOP-ABPP reactivity ratio at lysine P13639_K318 [2]: 1.1
isoTOP-ABPP reactivity ratio at lysine P22830_K304 [3]: 1.7
isoTOP-ABPP reactivity ratio at lysine Q96EL2_K94 [4]: 2.7
isoTOP-ABPP reactivity ratio at lysine P61289_K12 [5]: 0.9
isoTOP-ABPP reactivity ratio at lysine P61289_K237 [5]: 1.1
SMILES: O=C(CCc1coc2cc(F)ccc2c1=O)Oc1c(F)c(F)c(F)c(F)c1F [fragment 26, Pentafluorophenyl 3-(7-fluoro-4-oxo-4H-chromen-3-yl)propanoate]

isoTOP-ABPP reactivity ratio at lysine O43399_K90 [1]: 1.4
isoTOP-ABPP reactivity ratio at lysine P13639_K235 [2]: 5.7
isoTOP-ABPP reactivity ratio at lysine P22830_K304 [3]: 1.5
isoTOP-ABPP reactivity ratio at lysine Q96EL2_K94 [4]: 2.0
isoTOP-ABPP reactivity ratio at lysine P61289_K237 [5]: 0.8
SMILES: O=C(CN1C(=O)c2ccccc2C1=O)Oc1c(F)c(F)c(F)c(F)c1F [fragment 27, Pentafluorophenyl 2-(1,3-dioxoisoindolin-2-yl)acetate]

Second part, the compound before the results:

SMILES: O=C(CCc1cn(-c2ccccc2)nc1-c1ccccc1)Oc1c(F)c(F)c(F)c(F)c1F [fragment 19, Pentafluorophenyl 3-(1,3-diphenyl-1H-pyrazol-4-yl)propanoate]
R value (DMSO/fragment) for probe 1 labeling [1]: 2.6
R value (DMSO/fragment) for probe 1 labeling ([2]; P13639_K235): 1.2
R value (DMSO/fragment) for probe 1 labeling ([2]; P13639_K318): 1.1
R value (DMSO/fragment) for probe 1 labeling [3]: 1.8
R value (DMSO/fragment) for probe 1 labeling [4]: 1.4
R value (DMSO/fragment) for probe 1 labeling ([5]; P61289_K12): 1.0
R value (DMSO/fragment) for probe 1 labeling ([5]; P61289_K237): 0.2

SMILES: Cn1cc(CC(=O)Oc2c(F)c(F)c(F)c(F)c2F)c2ccccc21 [fragment 22, Pentafluorophenyl 2-(1-methyl-1H-indol-3-yl)acetate]
R value (DMSO/fragment) for probe 1 labeling [1]: 3.6
R value (DMSO/fragment) for probe 1 labeling ([2]; P13639_K235): 2.9
R value (DMSO/fragment) for probe 1 labeling ([2]; P13639_K318): 5.6
R value (DMSO/fragment) for probe 1 labeling [3]: 2.0
R value (DMSO/fragment) for probe 1 labeling [4]: 1.6
R value (DMSO/fragment) for probe 1 labeling ([5]; P61289_K12): 0.9
R value (DMSO/fragment) for probe 1 labeling ([5]; P61289_K237): 1.1

SMILES: O=C(Oc1c(F)c(F)c(F)c(F)c1F)C1CCN(C(=O)OCc2ccccc2)CC1 [fragment 24, 1-Benzyl 4-(pentafluorophenyl) piperidine-1,4-dicarboxylate]
isoTOP-ABPP reactivity ratio at lysine O43399_K90 [1]: 1.9
isoTOP-ABPP reactivity ratio at lysine P13639_K235 [2]: 1.1
isoTOP-ABPP reactivity ratio at lysine P13639_K318 [2]: 1.2
isoTOP-ABPP reactivity ratio at lysine P22830_K304 [3]: 1.5
isoTOP-ABPP reactivity ratio at lysine Q96EL2_K94 [4]: 1.5
isoTOP-ABPP reactivity ratio at lysine P61289_K237 [5]: 0.2

SMILES: CCn1cc(C(=O)Oc2c(F)c(F)c(F)c(F)c2F)c(=O)c2ccc(C)nc21 [fragment 28, Pentafluorophenyl 1-ethyl-7-methyl-4-oxo-1,4-dihydro-1,8-naphthyridine-3-carboxylate]
isoTOP-ABPP reactivity ratio at lysine O43399_K90 [1]: 1.1
isoTOP-ABPP reactivity ratio at lysine P13639_K235 [2]: 1.4
isoTOP-ABPP reactivity ratio at lysine P13639_K318 [2]: 1.6
isoTOP-ABPP reactivity ratio at lysine P22830_K304 [3]: 1.5
isoTOP-ABPP reactivity ratio at lysine Q96EL2_K94 [4]: 1.0
isoTOP-ABPP reactivity ratio at lysine P61289_K12 [5]: 1.0
isoTOP-ABPP reactivity ratio at lysine P61289_K237 [5]: 0.6

SMILES: O=C(CCc1cn(-c2ccccc2)nc1-c1ccccc1)Oc1ccc([N+](=O)[O-])cc1[N+](=O)[O-] [fragment 29, 2,4-Dinitrophenyl 3-(1,3-diphenyl-1H-pyrazol-4-yl)propanoate]
isoTOP-ABPP reactivity ratio at lysine O43399_K90 [1]: 3.1
isoTOP-ABPP reactivity ratio at lysine P13639_K235 [2]: 1.0
isoTOP-ABPP reactivity ratio at lysine P13639_K318 [2]: 0.9
isoTOP-ABPP reactivity ratio at lysine P22830_K304 [3]: 5.4
isoTOP-ABPP reactivity ratio at lysine Q96EL2_K94 [4]: 2.2
isoTOP-ABPP reactivity ratio at lysine P61289_K12 [5]: 1.1
isoTOP-ABPP reactivity ratio at lysine P61289_K237 [5]: 0.4

SMILES: O=C(Oc1ccc([N+](=O)[O-])cc1[N+](=O)[O-])c1cc(C(F)(F)F)cc(C(F)(F)F)c1 [fragment 31, 2,4-Dinitrophenyl 3,5-bis(trifluoromethyl)benzoate]
isoTOP-ABPP reactivity ratio at lysine O43399_K90 [1]: 3.3
isoTOP-ABPP reactivity ratio at lysine P13639_K235 [2]: 1.1
isoTOP-ABPP reactivity ratio at lysine P13639_K318 [2]: 1.2
isoTOP-ABPP reactivity ratio at lysine P22830_K304 [3]: 3.2
isoTOP-ABPP reactivity ratio at lysine Q96EL2_K94 [4]: 1.6
isoTOP-ABPP reactivity ratio at lysine P61289_K12 [5]: 1.1
isoTOP-ABPP reactivity ratio at lysine P61289_K237 [5]: 1.1
